Assay: mn = molality of the nth substance listed, in mol/kg
Details: 101 kPa, Liquid, Alternating current cell with electrodes

CCCCCCCC[N+](C)(C)CCCCCC[N+](C)(C)CCCCCCCC.[Br-].[Br-] + O
Details	electrical conductivity [S/m]
313.15 K, m1 = 0.1169	1.553
318.15 K, m1 = 0.00396	0.09519
318.15 K, m1 = 0.00782	0.2003
318.15 K, m1 = 0.01158	0.2945
318.15 K, m1 = 0.01525	0.381
318.15 K, m1 = 0.01883	0.4611
318.15 K, m1 = 0.02233	0.5339
318.15 K, m1 = 0.02574	0.6047
318.15 K, m1 = 0.02907	0.6691
318.15 K, m1 = 0.03233	0.7314
318.15 K, m1 = 0.03551	0.7874
318.15 K, m1 = 0.03862	0.8418
318.15 K, m1 = 0.04166	0.8941
318.15 K, m1 = 0.04463	0.9453
318.15 K, m1 = 0.04754	0.9898
318.15 K, m1 = 0.05038	1.036
318.15 K, m1 = 0.05589	1.12
318.15 K, m1 = 0.05856	1.154
318.15 K, m1 = 0.06117	1.192
318.15 K, m1 = 0.06373	1.221
318.15 K, m1 = 0.06624	1.254
318.15 K, m1 = 0.06869	1.281
318.15 K, m1 = 0.0711	1.313
318.15 K, m1 = 0.07346	1.338
318.15 K, m1 = 0.07577	1.367
318.15 K, m1 = 0.07804	1.392
318.15 K, m1 = 0.08027	1.412
318.15 K, m1 = 0.08245	1.437
318.15 K, m1 = 0.08459	1.458
318.15 K, m1 = 0.0867	1.474
318.15 K, m1 = 0.08876	1.498
318.15 K, m1 = 0.09078	1.51
318.15 K, m1 = 0.09277	1.532
318.15 K, m1 = 0.09473	1.547
318.15 K, m1 = 0.09665	1.567
318.15 K, m1 = 0.09853	1.582
318.15 K, m1 = 0.1004	1.591
318.15 K, m1 = 0.1022	1.609
318.15 K, m1 = 0.104	1.626
318.15 K, m1 = 0.1057	1.636
318.15 K, m1 = 0.1075	1.647
318.15 K, m1 = 0.1092	1.659
318.15 K, m1 = 0.1109	1.674
318.15 K, m1 = 0.1125	1.687
318.15 K, m1 = 0.1141	1.699
318.15 K, m1 = 0.1157	1.713
318.15 K, m1 = 0.1173	1.724
318.15 K, m1 = 0.1188	1.732
318.15 K, m1 = 0.1203	1.749
318.15 K, m1 = 0.1218	1.761
323.15 K, m1 = 0.00396	0.123
323.15 K, m1 = 0.00782	0.2241
323.15 K, m1 = 0.01158	0.3183
323.15 K, m1 = 0.01526	0.4132
323.15 K, m1 = 0.01884	0.5013
323.15 K, m1 = 0.02233	0.5818
323.15 K, m1 = 0.02575	0.6582
323.15 K, m1 = 0.02908	0.7289
323.15 K, m1 = 0.03234	0.7956
323.15 K, m1 = 0.03552	0.8617
323.15 K, m1 = 0.03863	0.9197
323.15 K, m1 = 0.04167	0.9784
323.15 K, m1 = 0.04464	1.033
323.15 K, m1 = 0.04755	1.084
323.15 K, m1 = 0.0504	1.133
323.15 K, m1 = 0.05591	1.222
323.15 K, m1 = 0.05858	1.262
323.15 K, m1 = 0.06119	1.299
323.15 K, m1 = 0.06375	1.336
323.15 K, m1 = 0.06625	1.367
323.15 K, m1 = 0.06871	1.396
323.15 K, m1 = 0.07112	1.427
323.15 K, m1 = 0.07348	1.453
323.15 K, m1 = 0.07579	1.485
323.15 K, m1 = 0.07806	1.514
323.15 K, m1 = 0.08029	1.542
323.15 K, m1 = 0.08247	1.564
323.15 K, m1 = 0.08461	1.59
323.15 K, m1 = 0.08672	1.613
323.15 K, m1 = 0.08878	1.634
323.15 K, m1 = 0.09081	1.651
323.15 K, m1 = 0.0928	1.671
323.15 K, m1 = 0.09475	1.694
323.15 K, m1 = 0.09667	1.71
323.15 K, m1 = 0.09855	1.728
323.15 K, m1 = 0.1004	1.745
323.15 K, m1 = 0.1022	1.761
323.15 K, m1 = 0.104	1.776
323.15 K, m1 = 0.1058	1.788
323.15 K, m1 = 0.1075	1.804
323.15 K, m1 = 0.1092	1.816
323.15 K, m1 = 0.1109	1.832
323.15 K, m1 = 0.1125	1.841
323.15 K, m1 = 0.1141	1.854
323.15 K, m1 = 0.1157	1.866
323.15 K, m1 = 0.1173	1.881
323.15 K, m1 = 0.1188	1.893
323.15 K, m1 = 0.1203	1.901
323.15 K, m1 = 0.1218	1.917
